Assays:
Type in all cases: physicochemical
[1] = Preliminary forced degradation study (acidic, basic, oxidative, photolytic stress) and excipient compatibility
Protocol: (§1) Stability: Preliminary forced degradation study of the crystalline form of the free base of the compound of Formula I in acidic, basic, oxidative, and photolytic stress conditions was conducted to investigate the viability of the crystalline form in various stress conditions. Since the solubility of the compound of Formula I was low in the standard solvent ethanol, ethanol was replaced by N-methyl-2-pyrrolidone (NMP).
The crystalline form of the free base of the compound of Formula I was stable for up to 8 days in solid state at 80° C. and in solution at pH 3 to pH 7 at RT. […] The crystalline form was stable after exposure to light in solid state.

[2] = Preliminary solid state stability, UPLC analysis after storage
Protocol: as §1
A defined amount of the crystalline form of the free base of the compound of Formula I (0.2-0.8 mg) was weighed into a 1.8 mL HPLC vial and stored open (75% RH) or closed (ambient) at the temperature and the time indicated. After incubation, compound was dissolved in 1-1.5 mL NMP to a final concentration of 0.2-0.5 mg/mL and submitted to UPLC analysis (254 nm).

[3] = Solubility of the crystalline form in aqueous media, simulated fluids and organic solvents; settings: in the presence of surfactants (e.g., Tween-80, sodium dodecyl sulfate, dioctyl sulfosuccinate, Pluronic F68) and cyclodextrins
Protocol: Solubility in simulated gastric fluid (SGF), fasted state simulated intestinal fluid (FaSSIF), and fed state simulated intestinal fluid (FeSSIF) was 0.019 mg/ml, 0.006 mg/mL, and 0.022 mg/mL, respectively. Solubility increased 50-100-fold in the presence of surfactants (e.g., Tween-80, sodium dodecyl sulfate, dioctyl sulfosuccinate, or Pluronic F68) and cyclodextrins; however it was still rather low.

[4] = Thermodynamic stability of the crystalline form; settings: at least between 20° C. and 60° C.
Description: The XRPD pattern can be obtained by following protocols known in the field.

[5] = Stability in suspension vehicle and parenteral formulation; settings: 0.5% HPC/1% Tween 80, up to 5 weeks at RT
Protocol: For parenteral administration, a 30% Kleptose formulation (1.5 mg/ml, physiologic osmolality, pH 6.2), with a stability of at least 4 weeks at 40° C. was developed.

## Cn1ncc(C(=O)N2CCOCC2)c1C(=O)Nc1ccn2nc(-c3ccccc3)nc2c1 [1-methyl-4-(morpholine-4-carbonyl)-N-(2-phenyl[1,2,4]triazolo[1,5-a]pyridin-7-yl)-1H-pyrazole-5-carboxamide]
[1]
  Excipient compatibility (CompaS assay): compatible with almost all excipients
[1]; 1 day
  Stability towards oxidation: stable
[1]; in solution
  Stability towards daylight: stable
[1]; in solution at pH 3 to pH 7 at RT, up to 8 days
  Stability in solution: stable
[1]; in solution, pH higher than 7 or lower than 3
  Stability in solution at higher or lower pH: degradation was observed
[1]; in solution, time dependent
  Stability in the Suntest: moderately stable to unstable
[1]; prolonged exposure
  Stability towards oxidation: some sensitivity
[1]; solid state
  Stability after exposure to light: stable
[1]; solid state at 80° C., up to 8 days
  Stability in solid state: stable
[2]; solid state at various temperatures
  Degradation products: < 0.5%
[2]; solid state, 4 w, 4° C.
  UPLC analysis (Area % main peak): 100 Area %
[2]; solid state, 4 w, 40° C.
  UPLC analysis (Area % main peak): 100 Area %
[2]; solid state, 4 w, 40° C., 75% RH
  UPLC analysis (Area % main peak): 100 Area %
[2]; solid state, 4 w, 60° C.
  UPLC analysis (Area % main peak): 100 Area %
[2]; solid state, 4 w, RT
  UPLC analysis (Area % main peak): 100 Area %
[2]; solid state, 40-60° C.
  Time stable in solid state: at least 4 weeks
[2]; solid state, 1 h, 80° C.
  UPLC analysis (Area % main peak): 100 Area %
[2]; solid state, 1 d, 80° C.
  UPLC analysis (Area % main peak): 100 Area %
[2]; solid state, 8 d, 80° C.
  UPLC analysis (Area % main peak): 100 Area %
[3]
  Solubility increase: 50-100 fold
[4]
  Thermodynamic stability: thermodynamically stable
[5]
  Particle growth and hydrate formation in suspension vehicle: only minor particle growth and no hydrate formation
  Stability in suspension vehicle: stable

From US12544364B2, “Use of a phosphodiesterase 10 inhibitor for the treatment of tourette syndrome” (Noema Pharma AG, priority 2020, dated 2026)
